According to paper PMC12081876, “Identification of PTGR2 inhibitors as a new therapeutic strategy for diabetes and obesity” (EMBO Molecular Medicine, 2025):
“And” between values parts separate entries of the source, which are not always exact repeats. Identical values can stand only once.

Legend:
hPTGR2 [1] = target: T1, hPTGR2 (Homo sapiens, UniProt Q8N8N7); test: 15-keto-PGE2-dependent PPARγ trans-activation in PTGR2-transfected HEK293T cells; assay type: cell-based; design: expressed in transfected cells; host or cells: HEK293T; conditions: for Figure 5C relative PPARγ trans-activation (replicates): (+) Ptgr2
T1 sequence (Q8N8N7 whole entry): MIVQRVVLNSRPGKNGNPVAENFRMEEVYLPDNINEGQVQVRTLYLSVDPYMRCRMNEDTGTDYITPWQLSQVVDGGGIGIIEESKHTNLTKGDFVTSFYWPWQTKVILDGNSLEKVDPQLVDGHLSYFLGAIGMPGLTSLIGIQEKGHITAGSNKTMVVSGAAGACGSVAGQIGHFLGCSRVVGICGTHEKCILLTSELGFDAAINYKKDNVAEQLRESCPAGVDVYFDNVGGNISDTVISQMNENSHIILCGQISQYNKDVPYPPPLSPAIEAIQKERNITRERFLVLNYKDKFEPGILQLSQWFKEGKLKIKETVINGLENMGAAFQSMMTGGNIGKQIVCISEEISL
Source text: Based on these findings from the Ptgr2^−/− mice, we next searched for druggable chemical inhibitors that can effectively suppress human PTGR2 (hPTGR2) enzymatic activity. Using a high-throughput screening of 12,500 chemicals, we identified 31 hits and generated 282 derivatives using a molecular hybridization strategy among the hits. The in vitro IC50 (the half-maximal inhibitory concentration), EC50 (the concentration for half-maximal effect), and the compound’s activity to restore 15-keto-PGE2-dependent PPARγ trans-activation in HEK293T cells expressing recombinant PTGR2 were profiled.
Gal4-PPARγ/UAS-LUC reporter assay was conducted as previously described (Wu et al, [2008]) with minor modifications. Briefly, HEK293T cells were seeded in 24-well plates at 1 × 10^5 cells/well. After 24-h growth, a DNA solution containing UASG reporter construct, GAL4-PPAR expression plasmid, and TK-Rluc (Renilla luciferase) reporter construct (internal control) was transfected using TurboFect™ transfection reagent (cat. no. R0532, Thermo Fisher). Cells were treated and harvested after another 24 and 48 h, respectively. Luciferase activity was measured using Luc-Pair™ Duo-Luciferase HS Assay Kit (cat. no. LF600, Promega) and normalized with the TK reporter signal.

3T3-L1 adipocytes = test: Intracellular 15-keto-PGE2 content of 3T3-L1 cells (LC-MS/MS); assay type: cell-based, mouse
Protocol: The lysate was centrifuged at 300 × g for 5 min to remove cellular debris. The supernatant was transferred to a new tube. The C18 SPE cartridge was sequentially activated with 2 mL methanol and 2 mL ddH2O. The lower-layer sample was transferred to the C18 SPE cartridge. Once the lysate passed the cartridge, the SPE cartridge was washed with 2 mL 15% methanol and 5 mL ddH2O. The sample was then eluted with 5 mL HPLC-degree methanol and aliquoted into new 2-mL tubes. The elute was air-dried using a SpeedVac system and stored at −80 °C. The dried samples were reconstituted with 60 μL methanol before analysis.

hPTGR2 [2] = target: T1, hPTGR2; test: Conversion of 15-keto-PGE2 by recombinant human PTGR2 protein; assay type: biochemical; design: made in house; conditions: incubated with recombinant human PTGR2 protein
phospho-Akt = test: Insulin signaling in vivo (phospho-Akt immunoblot); design: species or system mouse; conditions: 40 mg/kg/day ip, HFHSD-fed mice, vs vehicle
Protocol: To evaluate insulin signaling in vivo, mice were fasted overnight. Tissue was harvested 15 min after intraperitoneal insulin injection. The samples (perigonadal fat, inguinal fat, brown adipose tissue and liver) were extracted with RIPA buffer (50 mM Tris-HCl, pH 7.4, 2 mM ethylenediaminetetraacetic acid [EDTA]), 150 mM NaCl, 50 mM NaF, 1% Nonidet P-40, 1 mM phenylmethylsulfonyl fluoride [PMSF], 0.5% sodium deoxycholate, and 0.1% sodium dodecyl sulfate [SDS]) containing phosphatase inhibitor cocktail (cat. no. 04693132001, Roche) and homogenized. The homogenates were then centrifuged at 13,000 rpm for 10 min at 4 °C to remove debris. Samples were separated by SDS-polyacrylamide gel electrophoresis, transferred to polyvinylidene difluoride (PVDF) membrane, blocked with 3% BSA, and probed with anti-phospho-Akt antibody (cat. no. 4058, Cell Signaling) and anti-Akt antibody (cat. no. 9272, Cell Signaling), and then with HRP conjugated anti-rabbit IgG antibody (1:10,000; cat. no. GTX26721, GeneTex).

mPPARγ LBD C313A mutant = target: T2, mPPARγ LBD C313A mutant (Mus musculus, UniProt P37238, C313A); test: Native mass spectrometry ligand binding, mPPARγ LBD C313A; design: species or system murine
T2 construct: mPPARγ LBD C313A mutant
T2 sequence (P37238 238-503 C313A limits assumed): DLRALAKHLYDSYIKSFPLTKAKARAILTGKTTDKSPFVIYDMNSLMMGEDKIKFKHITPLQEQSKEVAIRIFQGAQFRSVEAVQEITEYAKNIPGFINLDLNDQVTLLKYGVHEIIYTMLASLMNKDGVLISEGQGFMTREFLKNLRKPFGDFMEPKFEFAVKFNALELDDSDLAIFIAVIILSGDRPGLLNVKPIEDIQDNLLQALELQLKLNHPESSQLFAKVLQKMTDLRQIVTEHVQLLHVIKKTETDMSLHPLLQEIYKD
Protocol: Wide-type mPPARγ ligand binding domain (LBD), mPPARγ LBD C313A mutant, and mPPARγ LBD H351A mutant were mixed together in a 1:1:1 molar ratio and then incubated with 15-keto-PEG2 or pioglitazone in a 1:10 molar ratio for 5 min at room temperature, respectively. The protein mixture was buffer-exchanged into 500 mM ammonium acetate buffer pH 7.5 using 7 K Zeba™ Spin Desalting Column (cat. no, 89877, Thermo) and immediately introduced into a modified Q-Exactive mass spectrometer (Thermo). The sets of optimized parameters were applied to analyze the ligand binding, including the higher-energy collisional dissociation (HCD) energy of 20 V; spray voltage, 1.1 kV; capillary temperature, 200 °C; S-lens RF level, 200; and resolution, 12,500 at m/z 400. Spectra were acquired and processed manually using Thermo Xcalibur Qual Browser (version 4.4.16.14). The relative percentage of compound-bound forms was quantified by the UniDec software and the degree of effector coupling was calculated by normalizing the relative percentage of bound forms to the sum of the percentage of unbound and bound forms.

SMILES: Cc1[nH]c2nc(C(C)N3CCN(c4ccccc4)CC3)nn2c(=O)c1Cc1ccc(F)cc1 (centres unmarked) [BPRPT245]
- Figure 5C relative PPARγ trans-activation (replicates) (hPTGR2 [1]; 16nM): 0.5809 and 0.5894 and 0.6256 and 0.6099 and 0.5702
- Figure 5C relative PPARγ trans-activation (replicates) (hPTGR2 [1]; 80nM): 0.8628 and 0.8769 and 0.8751 and 0.836 and 0.7826
- Figure 5C relative PPARγ trans-activation (replicates) (hPTGR2 [1]; 400nM): 0.9481 and 0.8913 and 0.9158 and 0.7904 and 0.8206
- Figure 5C relative PPARγ trans-activation (replicates) (hPTGR2 [1]; 2uM): 0.9154 and 0.9224 and 0.8575 and 0.8409 and 0.8698
- Figure 5C relative PPARγ trans-activation (replicates) (hPTGR2 [1]; 10uM, (-) Ptgr2 about 1, (+) Ptgr2 alone 0.41-0.61): 0.9406 and 0.9982 and 0.9802 and 0.9197 and 0.9012

SMILES: CCCCCC(=O)/C=C/[C@H]1[C@H](O)CC(=O)[C@@H]1C/C=C\CCCC(=O)O [15-keto-PGE2, 15-keto-prostaglandin E2]
- increase of intracellular 15-keto-PGE2 levels (3T3-L1 adipocytes; exogenously added 15-keto-PGE2 10–20 μM, 3T3-L1 adipocytes): 1.25 to 1.78 fold
- 15-keto-PGE2 converted into 13,14-dihydro-15-keto-PGE2 (hPTGR2 [2]): 99.83%
- phospho-Akt after insulin injection (immunoblot) (phospho-Akt): increased phospho-Akt in perigonadal fat, inguinal fat, brown adipose tissue, and liver
- effect of C313A mutation on binding (native MS) (mPPARγ LBD C313A mutant): almost completely abolished 15-keto-PGE2 binding

SMILES: Cc1[nH]c2nc(C(C)N3CCN(c4ccccc4)CC3)nn2c(=O)c1Cc1ccc(F)cc1 (centres unmarked) [BPRPT0245]
- intracellular 15-keto-PGE2 concentrations (3T3-L1 adipocytes; differentiated 3T3-L1 adipocytes treated with BPRPT0245): increased intracellular 15-keto-PGE2 concentrations in a dose-dependent manner
- EC50 (hPTGR2 [1]; restoring 15-keto-PGE2-dependent PPARγ trans-activation, HEK293T expressing recombinant PTGR2): 49.2 nM
